# Source: patent publication US4178442A, “Novel cinnamoyles piperazines and homopiperazines, the method of preparing them and their application in therapeutics” (Delalande S. A., priority 1977, dated 1979)
# Like-named read-outs stand apart in the source and are kept apart here.
# Columns and labels:
# in vivo = conditions: for mortality: read-out: Toxicity (Mortality); for LD50: read-out: Toxicity: LD50
# Text: *LD50 or percentage of mortality which is given between brackets
# anaesthetized dog = test: Antiangorous activity on anaesthetized dog: consumption of oxygen in the left ventricule and cardiac effort (KATZ's index); assay type: in vivo; conditions: for inhibition in vivo at 0.625 mg/kg / inhibition in vivo at […] / inhibition in vivo at 2.5 mg/kg / inhibition in vivo at 1.25 mg/kg: Canis lupus familiaris, iv; for inhibition in vivo at […]: 0.15 mg/kg i.v. slow perfusion
# Summary of the method: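 Katz index taken as mean arterial pressure multiplied by ECG (D2) heart rate, and myocardial O2 use as coronary sinus flow via modified Morawitz cannula times coronary arteriovenous O2 difference. Animals: pentobarbital-anaesthetized dogs (30 mg/kg i.v.), test compounds infused slowly intravenously.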
# [1] = 0.625 mg/kg i.v. slow perfusion
# [2] = 0.625 mg/kg i.v. slow perfusion, read-out: Diminution in consumption of O2
# [3] = 0.625 mg/kg i.v. slow perfusion, read-out: Diminution in the cardiac effort (IK)
# [4] = read-out: Diminution in consumption of O2
# [5] = read-out: Diminution in the cardiac effort (IK)
# [6] = 2.5 mg/kg i.v. slow perfusion, read-out: Diminution in consumption of O2
# [7] = 2.5 mg/kg i.v. slow perfusion, read-out: Diminution in the cardiac effort (IK)
SMILES,"mortality (in vivo; iv, 400 mg/kg i.v.) [%]",Diminution in consumption of O2: in time (anaesthetized dog; 2.5 mg/kg i.v. slow perfusion) [min],inhibition in vivo at 2.5 mg/kg (anaesthetized dog; [6]) [%],inhibition in vivo at 2.5 mg/kg (anaesthetized dog; [7]) [%],LD50 (in vivo; iv) [mg/kg],Diminution in the cardiac effort (IK): in time (anaesthetized dog; 2.5 mg/kg i.v. slow perfusion) [min],also measured
COc1cc(/C=C/C(=O)N2CCN(CC(O)COc3ccc(CC(N)=O)c4c3OCCO4)CC2)cc(OC)c1OC (centres unmarked) [770 386],20,–,–,–,–,–,Diminution in consumption of O2: in time (anaesthetized dog; [1]): 30 min; Diminution in the cardiac effort (IK): in time (anaesthetized dog; [1]): 30 min; inhibition in vivo at 0.625 mg/kg (anaesthetized dog; [2]): 41%; inhibition in vivo at 0.625 mg/kg (anaesthetized dog; [3]): 20%
CCCNC(=O)Nc1ccc(OCC(O)CN2CCN(C(=O)/C=C/c3cc(OC)c(OC)c(OC)c3)CC2)c2c1OCCO2 (centres unmarked) [770 483],–,–,–,–,–,–,"mortality (in vivo; po, p.o.: 2000 mg/kg): 0%; inhibition in vivo at […] (anaesthetized dog; [4]): 74%; inhibition in vivo at […] (anaesthetized dog; [5]): 16%"
COc1cc(NC(C)=O)ccc1OCC(O)CN1CCN(C(=O)/C=C/c2cc(OC)c(OC)c(OC)c2)CC1 (centres unmarked) [770 487],30,60,47,14,–,–,–
COc1cc(/C=C/C(=O)N2CCN(CC(O)COc3ccc(CC#N)cc3)CC2)cc(OC)c1OC (centres unmarked) [770 488],–,30,78,17,225,15,–
CCOc1c(OC)cc(/C=C/C(=O)N2CCN(CC(O)COc3ccc(C(C)=O)c4c3OCCO4)CC2)cc1OC (centres unmarked) [770 504],–,15,52,10,145,–,–
CCOC(=O)Nc1ccc(OCC(O)CN2CCN(C(=O)/C=C/c3cc(OC)c(OC)c(OC)c3)CC2)c2c1OCCO2 (centres unmarked) [770 525],–,–,–,–,325,–,Diminution in consumption of O2: in time (anaesthetized dog; [1]): 60 min; Diminution in the cardiac effort (IK): in time (anaesthetized dog; [1]): 60 min; inhibition in vivo at 0.625 mg/kg (anaesthetized dog; [2]): 66%; inhibition in vivo at 0.625 mg/kg (anaesthetized dog; [3]): 43%
COc1cc(/C=C/C(=O)N2CCN(CC(O)COc3ccc(NC(=O)c4ccccc4)c4c3OCCO4)CC2)cc(OC)c1OC (centres unmarked) [770 529],–,–,–,–,–,–,"mortality (in vivo; po, p.o.: 2000 mg/kg): 22%; Diminution in consumption of O2: in time (anaesthetized dog; [1]): 30 min; Diminution in the cardiac effort (IK): in time (anaesthetized dog; [1]): 30 min; inhibition in vivo at 0.625 mg/kg (anaesthetized dog; [2]): 56%; inhibition in vivo at 0.625 mg/kg (anaesthetized dog; [3]): 29%"
COc1cc(/C=C/C(=O)N2CCN(CC(O)COc3ccc(NC(=O)C4CCCCC4)c4c3OCCO4)CC2)cc(OC)c1OC (centres unmarked) [770 533],–,–,–,–,–,–,"mortality (in vivo; po, p.o.: 2000 mg/kg): 10%; Diminution in consumption of O2: in time (anaesthetized dog; [1]): 25 min; Diminution in the cardiac effort (IK): in time (anaesthetized dog; [1]): 25 min; inhibition in vivo at 0.625 mg/kg (anaesthetized dog; [2]): 30%; inhibition in vivo at 0.625 mg/kg (anaesthetized dog; [3]): 28%"
COc1cc(/C=C/C(=O)N2CCN(CC(O)COc3ccc(C(C)=O)c4c3OCCO4)CC2)cc(OC)c1 (centres unmarked) [770 538],–,15,54,28,198,25,–
CCC(=O)Nc1ccc(OCC(O)CN2CCN(C(=O)/C=C/c3cc(OC)c(OC)c(OC)c3)CC2)c2c1OCCO2 (centres unmarked) [770 545],40,–,–,–,–,–,Diminution in consumption of O2: in time (anaesthetized dog; [1]): 30 min; Diminution in the cardiac effort (IK): in time (anaesthetized dog; [1]): 15 min; inhibition in vivo at 0.625 mg/kg (anaesthetized dog; [2]): 61%; inhibition in vivo at 0.625 mg/kg (anaesthetized dog; [3]): 16%
COc1cc(/C=C/C(=O)N2CCN(CC(O)COc3ccc(C#N)c4c3OCCO4)CC2)cc(OC)c1OC (centres unmarked) [770 585],–,30,75,41,–,30,"mortality (in vivo; po, p.o.: 2000 mg/kg): 0%"
COc1cc(/C=C/C(=O)N2CCN(CC(O)COc3cc(C(C)=O)cc4c3OCCO4)CC2)cc(OC)c1OC (centres unmarked) [770 590],–,45,60,33,290,45,–
CCCCC(=O)Nc1ccc(OCC(O)CN2CCN(C(=O)/C=C/c3cc(OC)c(OC)c(OC)c3)CC2)c2c1OCCO2 (centres unmarked) [770 601],–,–,–,–,–,–,"mortality (in vivo; po, p.o.: 2000 mg/kg): 22%; Diminution in consumption of O2: in time (anaesthetized dog; [1]): 30 min; Diminution in the cardiac effort (IK): in time (anaesthetized dog; [1]): 30 min; inhibition in vivo at 0.625 mg/kg (anaesthetized dog; [2]): 69%; inhibition in vivo at 0.625 mg/kg (anaesthetized dog; [3]): 25%"
CCCC(=O)Nc1ccc(OCC(O)CN2CCN(C(=O)/C=C/c3cc(OC)c(OC)c(OC)c3)CC2)c2c1OCCO2 (centres unmarked) [770 610],–,–,–,–,–,–,"mortality (in vivo; po, p.o.: 2000 mg/kg): 0%; Diminution in consumption of O2: in time (anaesthetized dog; [1]): 60 min; Diminution in the cardiac effort (IK): in time (anaesthetized dog; [1]): 45 min; inhibition in vivo at 0.625 mg/kg (anaesthetized dog; [2]): 56%; inhibition in vivo at 0.625 mg/kg (anaesthetized dog; [3]): 34%"
COc1cc(/C=C/C(=O)N2CCN(CC(O)COc3ccc(NC(=O)C(C)(C)C)c4c3OCCO4)CC2)cc(OC)c1OC (centres unmarked) [770 614],–,–,–,–,–,–,"mortality (in vivo; po, p.o.: 2000 mg/kg): 11%; Diminution in consumption of O2: in time (anaesthetized dog; [1]): 30 min; Diminution in the cardiac effort (IK): in time (anaesthetized dog; [1]): 30 min; inhibition in vivo at 0.625 mg/kg (anaesthetized dog; [2]): 49%; inhibition in vivo at 0.625 mg/kg (anaesthetized dog; [3]): 45%"
COc1cc(/C=C/C(=O)N2CCN(CC(O)COc3ccc(NC(=O)NC(C)C)c4c3OCCO4)CC2)cc(OC)c1OC (centres unmarked) [770 630],40,–,–,–,–,–,inhibition in vivo at […] (anaesthetized dog; [4]): 58%; inhibition in vivo at […] (anaesthetized dog; [5]): 32%

SMILES,"mortality (in vivo; iv, 400 mg/kg i.v.) [%]",Diminution in consumption of O2: in time (anaesthetized dog; 2.5 mg/kg i.v. slow perfusion) [min],inhibition in vivo at 2.5 mg/kg (anaesthetized dog; [6]) [%],inhibition in vivo at 2.5 mg/kg (anaesthetized dog; [7]) [%],LD50 (in vivo; iv) [mg/kg],Diminution in the cardiac effort (IK): in time (anaesthetized dog; 2.5 mg/kg i.v. slow perfusion) [min],also measured
CCCCNC(=O)Nc1ccc(OCC(O)CN2CCN(C(=O)/C=C/c3cc(OC)c(OC)c(OC)c3)CC2)c2c1OCCO2 (centres unmarked) [770 634],30,–,–,–,–,–,inhibition in vivo at […] (anaesthetized dog; [4]): 69%; inhibition in vivo at […] (anaesthetized dog; [5]): 27%
COc1cc(/C=C/C(=O)N2CCN(CC(O)COc3ccc(NC(=O)C(C)C)c4c3OCCO4)CC2)cc(OC)c1OC (centres unmarked) [770 692],–,–,–,–,–,–,"mortality (in vivo; iv, 200 mg/kg i.v.): 60%; Diminution in consumption of O2: in time (anaesthetized dog; [1]): 15 min; Diminution in the cardiac effort (IK): in time (anaesthetized dog; [1]): 30 min; inhibition in vivo at 0.625 mg/kg (anaesthetized dog; [2]): 60%; inhibition in vivo at 0.625 mg/kg (anaesthetized dog; [3]): 45%"
COc1cc(/C=C/C(=O)N2CCN(CC(O)COc3ccc(C(C)=O)c4c3OCCO4)CC2)cc(OC)c1OC(C)C (centres unmarked) [770 727],–,15,57,27,130,30,–
COc1cc(/C=C/C(=O)N2CCN(CC(O)COc3ccccc3NC(C)=O)CC2)cc(OC)c1OC (centres unmarked) [770 738],40,45,63,48,–,45,–
COc1cc(/C=C/C(=O)N2CCN(CC(O)COc3ccc(C(=O)NC4CCCCC4)c4c3OCCO4)CC2)cc(OC)c1OC (centres unmarked) [770 831],–,–,–,–,–,–,"mortality (in vivo; po, p.o.: 2000 mg/kg): 0%; Diminution in consumption of O2: in time (anaesthetized dog; 1.25 mg/kg i.v. slow perfusion): 30 min; Diminution in the cardiac effort (IK): in time (anaesthetized dog; 1.25 mg/kg i.v. slow perfusion): 45 min; inhibition in vivo at 1.25 mg/kg (anaesthetized dog; 1.25 mg/kg i.v. slow perfusion, read-out: Diminution in consumption of O2): 45%; inhibition in vivo at 1.25 mg/kg (anaesthetized dog; 1.25 mg/kg i.v. slow perfusion, read-out: Diminution in the cardiac effort (IK)): 27%"
COc1cc(/C=C/C(=O)N2CCN(CC(O)COc3cccc(NC(C)=O)c3)CC2)cc(OC)c1OC (centres unmarked) [770 844],0,23,58,35,–,30,–
COc1cc(/C=C/C(=O)N2CCN(CC(O)COc3ccc(C(=O)Nc4ccccc4)c4c3OCCO4)CC2)cc(OC)c1OC (centres unmarked) [770 848],10,–,–,–,–,–,inhibition in vivo at […] (anaesthetized dog; [4]): 41%; inhibition in vivo at […] (anaesthetized dog; [5]): 5%
CCC(=O)c1ccc(OCC(O)CN2CCN(C(=O)/C=C/c3cc(OC)c(OC)c(OC)c3)CC2)cc1 (centres unmarked) [770 854],–,40,41,18,–,40,"mortality (in vivo; iv, 300 mg/kg i.v.): 20%"
CNC(=O)c1ccc(OCC(O)CN2CCN(C(=O)/C=C/c3cc(OC)c(OC)c(OC)c3)CC2)c(OC)c1 (centres unmarked) [770 855],–,60,60,45,260,60,–
COc1cc(/C=C/C(=O)N2CCN(CC(O)COc3ccc(C(C)C)cc3)CC2)cc(OC)c1OC (centres unmarked) [770 858],–,–,–,–,260,–,inhibition in vivo at […] (anaesthetized dog; [4]): 16%; inhibition in vivo at […] (anaesthetized dog; [5]): 15%
COc1cc(/C=C/C(=O)N2CCN(CC(O)COc3ccc(C(C)(C)C)cc3)CC2)cc(OC)c1OC (centres unmarked) [770 859],–,30,30,52,150,60,–
CNC(=O)Nc1ccc(OCC(O)CN2CCN(C(=O)/C=C/c3cc(OC)c(OC)c(OC)c3)CC2)cc1C (centres unmarked) [770 898],0,45,45,36,–,38,–
COc1cc(/C=C/C(=O)N2CCN(CC(O)COc3ccc([N+](=O)[O-])c(C)c3)CC2)cc(OC)c1OC (centres unmarked) [770 963],–,30,58,66,190,30,–
CNC(=O)Nc1ccc(OCC(O)CN2CCN(C(=O)/C=C/c3cc(OC)c(OC)c(OC)c3)CC2)c(OC)c1OC (centres unmarked) [770 992],0,40,77,36,–,30,–
"COc1cc(/C=C/C(=O)N2CCN(CC(O)COc3ccc(C(C)=O)cc3C)CC2)cc(OC)c1OC (centres unmarked) [770 993, 1-[3-(2-methyl-4-acetyl)phenyl-2-hydroxy]-propyl-4-(3,4,5-trimethoxycinnamoyl)piperazine chlorhydrate]",–,23,53,15,10,13,–
